# Earlier results as cited in US9255156B2, “Immunogenic synthetic glycoconjugate for the immunotherapy of melanoma” (Azienda Ospedaliero-Universitaria Careggi, priority 2009, dated 2016).
substance,measurement,value
GM3 lactone [GM3 lactone 2],stability under physiological conditions / hydrolytic stability,unstable under physiological conditions
